Patent publication US20240180880A1, “METHODS OF USING EHMT2 INHIBITORS IN TREATING OR PREVENTING BLOOD DISORDERS” (Epizyme, Inc., priority 2017, published 2024)

How the values were obtained:
Type in all cases: cell-based
[1] = test system: Human CD34+ progenitor cells; assay: Cell viability in the human CD34+ progenitors HbF induction assay
From the text: (§1) An in-vitro system to test the ability of compound to induce fetal hemoglobin expression was developed. This system used Human CD34+ progenitor cells freshly isolated from healthy donors blood collections. Peripheral blood mononuclear cells (PBMCs) were isolated from whole blood by density gradient centrifugation using SepMatem-50 and Lymphoprep™ from Stem Cell Technologies. CD34^+ hematopoietic progenitor cells (HSPCs) were isolated from PBMCs by magnetic separation using Stem Cells Technologies CD34+ positive selection/isolation kit (Stem Cell Technologies, #18056). CD34 cells were cultured using a 2-phase 14 day culture system. During phase 1 (day 0 to day 7) cells were expanded. […] At day 14 cells were harvested for Fluorescent Activated Cell Sorting (FACS) analysis and for HbF quantitation by Mass spectrometry. […] Data was analyzed using FlowJo software. % HbF^+ cells and ratios H3/H3K9me2 intensities were calculated for CD71^+/CD235a^+ gated populations.
A list of pharmacological agents was evaluated for their potential to induce fetal Hemoglobin (HbF) in order to identify combination partners for our EHMT1/2 inhibitors. HbF can be induced by toxicity; therefore, the potential of the agents to induce HbF were evaluated in the context of cell viability. […] The EHMT1/2 inhibitor Compound 205 was evaluated in combination with a fixed dose of 10 μM Hydroxyurea and 0.1 μM Pomalidomide. […]

Various cell lines [2] = assay: Cotreatment model (7-day) combination proliferation assay, cellular ATP luminescence, Loewe synergy; conditions: several cell lines, Compound 205 and DNA hypomethylating agents, 7-day cotreatment models (FIG. 1D)
Experimental: Cells were incubated for seven days under humidified atmosphere of 5% CO2 at 37° C. The final concentration of DMSO (vehicle) in the assay was 0.1% v/v. Quantification of proliferation through measurement of cellular adenosine triphosphate (ATP) was performed via a luminescent cell viability assay. Plates were read in a plate reader with luminescence module. Quantification of synergy was performed using the Loewe Additivity model and calculating the Loewe Volume (V Loewe) with the Chalice Software (Horizon) and dose response curves and IC50 vs concentration plots were generated with Graphpad Prism software.

Various cell lines [3] = assay: Pretreatment model (7+3 or 7+7) combination proliferation assay, cellular ATP luminescence, Loewe synergy; conditions: several cell lines
[4] = test system: Human CD34+ progenitor cells; assay: Human CD34+ progenitors assay, HbF (Hbγ) quantitation by mass spectrometry; conditions: compound 205 with Hydroxyurea, matrix format, CD34+ cells from a pool of 5 healthy donors; Loewe excess in Chalice
From the text: as §1, with “expanded. Expansion was followed by phase 2 (day 7 to day 14) where cells were differentiated toward the erythroid lineage. Compounds were added on day 1 and day 7 as 1000× stock after being diluted in dimethyl sulfoxide (DMSO) in a 3-fold series.” for “expanded.”
Hydroxyurea was also evaluated as single agent and in combination with the EHMT1/2 inhibitor compound 205 in a matrix format using CD34^+ cells isolated from a pool of 5 healthy donors. […]

CNc1cc(C)nc(Nc2ccc(OC)c(OCCCN3CCCC3)c2)n1 [Compound 205] was tested, and the cell viability ([1]; 0.016 μM compound 205 in combination with 0.1 μM Pomalidomide) was greater than 90%, the cell viability ([1]; 0.016 μM compound 205 in combination with 10 μM Hydroxyurea) was greater than 90% and the “combination effect on proliferation (Loewe)” value (from here on “combination effect … (Loewe)”) (Various cell lines [2]) was “synergy”. For the same compound, the “combination effect … (Loewe)” value (Various cell lines [3]; Compound 205 and ATRA (FIG. 1B)) was “synergy”, the “combination effect … (Loewe)” value (Various cell lines [3]; Compound 205 and Venetoclax (FIG. 1C)) was “synergy” and the “combination effect on Hbγ protein expression (MS quantification)” value [4] was “synergistically”.
